From US9464066B2, “Deuterated compounds useful for treating neurodegenerative diseases” (PharmatrophiX, Inc., priority 2009, dated 2016)

Tested on: hippocampal neurons
Assay: Measurement of activity relative to BDNF: prevention of degeneration of hippocampal neurons
Assay type: cell-based
Settings: hippocampal neurons from embryological day 16 mice, assessed 48 hours following cell seeding; BDNF maximum defined as 100%; baseline (CM) approximately 40%
Protocol: Compounds of the present application are tested for their ability to prevent the degeneration of hippocampal neurons as described in Massa et al J Neurosci. (2006) 26(20):5288-300. In brief, hippocampal neurons are isolated from embryological day 16 mice and seeded in 96-well tissue culture plates under conditions in which they degenerated in the absence of neurotrophin receptor ligands. Neuronal degeneration is assessed using morphological criteria 48 hours following cell seeding. The neurotrophins brain-derived neurotrophic factor (BDNF) and nerve growth factor (NGF) serve as positive controls. The maximum cell death preventing activity of BDNF is defined as 100% neurotrophic activity. The efficacy of NGF is 80% of that of BDNF. The neurotrophic activity of the test compounds at each applied concentration is quantitated in terms of a percentage of the maximum BDNF-supported survival level. In the presence of culture medium (CM) and the absence of BDNF or compounds, survival is approximately 40% of the BDNF maximum effect and this is regarded as baseline survival. For each compound, dose-response curves are generated and the EC50 and maximum survival percentage are derived.

## NGF: neurotrophin nerve growth factor, serves as positive control in the hippocampal neuron survival assay
  efficacy (neurotrophic activity as percentage of the maximum BDNF-supported survival): 80%
